Reference: article PMC7985445, “Characterization of Plasmodium falciparum Pantothenate Kinase and Identification of Its Inhibitors From Natural Products” (Frontiers in Cellular and Infection Microbiology, 2021)
Where two headings read alike, the source gives them in different places.

Tests used:
[1] = test system: Plasmodium falciparum sensitive strain 3D7; assay: P. falciparum asexual blood stage growth, diaphorase-coupled LDH assay; assay type: cell-based; details: 3D7, 72 h incubation, mean ± SEM, read-out: IC50 P. falciparum erythrocytic stages
Procedure: Before using, parasite culture was synchronized with 5% (w/v) d-sorbitol, as previously described ([Lambros and Vanderberg, 1979]). Ring stage 0.3% parasitemia (25 µl/well) were placed in a 384-well plate. Serial dilutions (50, 25, 12.5, 6.3, 3.1, 1.6, 0.8, and 0.4 μM) of each compound were used for calculating IC50. As the negative growth control, 50 µM of Mefloquine and 20 µM of Atovaquone were used. After 72 h of incubation, parasite growth was determined by diaphorase-coupled lactate dehydrogenase (LDH) assay, as previously described ([Hartuti et al., 2018]). Each well’s absorbance was measured at 650 nm using SpectraMax Paradigm®Multi-Mode microplate reader (Molecular Devices, San Jose, CA, USA). The IC50 values were analyzed and calculated with GraphPad PRISM 8.0 (San Diego, California USA).

PfPanK1 = target: T1, PfPanK1 (Plasmodium falciparum, UniProt Q8ILP4); assay: Screening of natural compounds for PfPanK inhibitors and IC50 determination (recombinant enzyme, ADP Hunter Plus); assay type: biochemical
T1 sequence (Q8ILP4 1-519): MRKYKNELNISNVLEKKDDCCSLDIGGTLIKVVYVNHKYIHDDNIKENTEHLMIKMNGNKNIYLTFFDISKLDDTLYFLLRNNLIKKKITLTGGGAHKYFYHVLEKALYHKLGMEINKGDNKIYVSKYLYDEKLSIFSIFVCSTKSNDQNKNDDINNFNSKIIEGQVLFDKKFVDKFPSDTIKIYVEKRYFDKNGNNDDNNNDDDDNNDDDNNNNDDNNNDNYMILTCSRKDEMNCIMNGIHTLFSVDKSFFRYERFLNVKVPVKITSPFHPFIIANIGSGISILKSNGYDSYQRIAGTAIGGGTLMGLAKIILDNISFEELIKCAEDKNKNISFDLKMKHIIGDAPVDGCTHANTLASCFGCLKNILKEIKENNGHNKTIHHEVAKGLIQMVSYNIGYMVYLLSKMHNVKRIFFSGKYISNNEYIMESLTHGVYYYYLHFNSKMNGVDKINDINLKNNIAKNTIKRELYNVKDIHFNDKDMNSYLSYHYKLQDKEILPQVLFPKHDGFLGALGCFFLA
Procedure: We screened 247 compounds from the Kitasato Natural Products Library ([Mori et al., 2015]; [Nurkanto et al., 2018]) against PfPanK recombinant enzyme. Compounds were dissolved in 50% DMSO at a final concentration of 1 mg/ml.

various human cell lines = test system: various human cell lines; parameters: method as in Koizumi et al., 2009; details: ref Koizumi et al., 2009; cited from earlier work
[2] = test system: P. falciparum K1 and FCR3 strain; details: ref Ui et al., 2007, read-out: IC50 P. falciparum erythrocytic stages, cited from earlier work
[3] = recombinant PfPanK1; mean ± SEM

For OC[C@H]1O[C@@H](Oc2ccc(/C=C/c3cc(O)c4c(c3)O[C@H](c3ccc(O)cc3)[C@H]4c3cc(O)cc(O)c3)cc2)[C@H](O)[C@@H](O)[C@@H]1O [Gnemonoside D], the IC50 [1] was 1900 ± 600 nM, the inhibition (PfPanK1; primary screening; 37°C, 2 h) was 85% and the IC50 (PfPanK1; [3]) was 57500 ± 3600 nM.

For COc1c2c(c(O)c3c(=O)c4c(oc13)[C@@H](O)CC[C@@H]4O)-c1c3c(c4cc(C)n(C)c(=O)c4c1O)OCO[C@H]3C2 [Simaomicin α], the EC50 (various human cell lines) is given as 0.3 to 19 nM, the inhibition (PfPanK1; 2 h, primary screening; 37°C) is given as 76.9% and the IC50 (PfPanK1; [3]) is given as 57600 ± 4800 nM. For the same compound, the IC50 ([2]; FCR3 strain) was 0.018 nM and the IC50 ([2]; K1 strain) was 0.083 nM.
